Assays:
[1] = target: T1, human GR (Homo sapiens, UniProt P04150); assay: Transrepression Assay (GITAR), TNFα-β-lactamase reporter gene in U937 cells; assay type: cell-based; design: U937 cells contain an endogenous glucocorticoid receptor (GR); endogenous in cells; host or cells: U937 cells stably transfected with the TNF-α promoter/β-lactamase reporter only; conditions: for EC50: IP = inflection point, read-out: Transrepression U937 Cells GITAR IP; for GITAR > GRAMM % SEP: separation of GITAR Emax over GRAMMER Emax; for Emax: U-937
T1 sequence (P04150 1-777): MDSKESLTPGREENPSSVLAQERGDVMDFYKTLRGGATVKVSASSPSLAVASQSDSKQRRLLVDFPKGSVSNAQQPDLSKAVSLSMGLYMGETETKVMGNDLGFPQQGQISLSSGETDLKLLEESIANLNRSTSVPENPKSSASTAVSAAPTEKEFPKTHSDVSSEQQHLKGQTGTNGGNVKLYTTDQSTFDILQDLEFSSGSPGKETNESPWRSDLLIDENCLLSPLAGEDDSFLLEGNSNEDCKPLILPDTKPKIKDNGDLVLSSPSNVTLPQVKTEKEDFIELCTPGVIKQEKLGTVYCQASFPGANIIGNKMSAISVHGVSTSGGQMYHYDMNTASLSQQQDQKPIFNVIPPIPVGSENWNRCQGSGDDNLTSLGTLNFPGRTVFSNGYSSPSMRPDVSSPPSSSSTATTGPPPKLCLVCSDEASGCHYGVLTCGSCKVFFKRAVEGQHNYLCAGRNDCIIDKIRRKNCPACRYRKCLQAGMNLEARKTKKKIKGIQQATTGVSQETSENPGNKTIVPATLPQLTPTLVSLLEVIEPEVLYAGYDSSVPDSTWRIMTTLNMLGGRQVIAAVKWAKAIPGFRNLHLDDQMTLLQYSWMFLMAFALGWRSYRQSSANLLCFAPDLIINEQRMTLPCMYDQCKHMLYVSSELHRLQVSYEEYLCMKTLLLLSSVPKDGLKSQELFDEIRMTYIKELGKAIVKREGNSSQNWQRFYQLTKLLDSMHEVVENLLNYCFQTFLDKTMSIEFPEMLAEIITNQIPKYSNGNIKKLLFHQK
Summary of the method: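 Reporter readout used CCF2-AM loading for 70–90 min at room temperature after overnight (~18 h, 37 °C) PMA (5 ng/ml final) and LPS (100 ng/ml final) stimulation of compound-treated (30–45 min) TNFα-β-lactamase U937 cells expressing native GR. Activity was normalised to 100 nM dexamethasone repression.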

[2] = target: T1, human GR; assay: Trans-Activation Modulation of Glucocorticoid Receptor (GRAMMER), MMTV-LUC reporter gene; assay type: cell-based; design: endogenous in cells; conditions: for Emax: A549, read-out: Transactivation A549 Cells GRAMMER Emax (%); for EC50: Table 1, A549 cells, IP = inflection point, read-out: Transactivation A549 Cells GRAMMER IP
[3] = 100 nM dexamethasone = 100% activity, read-out: maximal activity in the transrepression assay
[4] = Table 1, U937 cells, activity repressed by 100 nM dexamethasone = 100%, read-out: Transrepression U937 Cells GITAR Emax (%)

Q: How did the EC50 ([1]; Table 1, U937 cells) turn out when `CCS(=O)(=O)c1ccccc1CC[C@]1(O)CCC2=Cc3c(cnn3-c3ccc(F)cc3)C[C@@]21C` [Example 143, (4αS,5R)-5-{2-[2-(ethylsulfonyl)phenyl]ethyl}-1-(4-fluorophenyl)-4α-methyl-1,4,4α,5,6,7-hexahydrocyclopenta[f]indazol-5-ol] was run?
A: 194 nM

Q: And the “GITAR > GRAMM % SEP” value ([1]; Table 1)?
A: 29%

Q: And the Emax [1, 3]?
A: 5 to 100%

Q: And the Emax [1, 4]?
A: 70%

Q: What about the Emax [2] of the same molecule?
A: 41%

Q: What about the EC50 [2] of the same molecule?
A: 118 nM

Q: With `C[C@]12Cc3cnn(-c4ccc(F)cc4)c3C=C1CC[C@@]2(O)CCc1ccccc1S(=O)(=O)C1CC1` [Example 144, (4αS,5R)-5-{2-[2-(cyclopropylsulfonyl)phenyl]ethyl}-1-(4-fluorophenyl)-4α-methyl-1,4,4α,5,6,7-hexahydrocyclopenta[f]indazol-5-ol] as the molecule, how does the EC50 ([1]; Table 1, U937 cells) read?
A: 212 nM

Q: What about the Emax [1, 3] of the same molecule?
A: 5 to 100%

Q: What about the Emax [1, 4] of the same molecule?
A: 70%

Q: What about the Emax [2] of the same molecule?
A: 40%

Q: What about the EC50 [2] of the same molecule?
A: 268 nM

Q: For `C[C@]12Cc3cnn(-c4ccc(F)cc4)c3C=C1CC[C@@]2(O)CCc1cccc(F)c1CO` [Example 148, (4αS,5R)-5-{2-[3-fluoro-2-(hydroxymethyl)phenyl]ethyl}-1-(4-fluorophenyl)-4α-methyl-1,4,4α,5,6,7-hexahydrocyclopenta[f]indazol-5-ol], which EC50 ([1]; Table 1, U937 cells) is on record?
A: 46 nM

Q: What about the “GITAR > GRAMM % SEP” value ([1]; Table 1) of the same molecule?
A: 18%

Q: What about the Emax [1, 3] of the same molecule?
A: 5 to 100%

Q: What about the Emax [1, 4] of the same molecule?
A: 75%

Q: What about the Emax [2] of the same molecule?
A: 57%

Q: And the EC50 [2]?
A: 43 nM

Q: What does the source list for `C[C@]12Cc3cnn(-c4ccc(F)cc4)c3C=C1CC[C@@]2(O)CCc1cccc(F)c1[C@H](N)C(F)(F)F` [Example 151, (4αS,5R)-5-(2-{2-[(1S)-1-amino-2,2,2-trifluoroethyl]-3-fluorophenyl}ethyl)-1-(4-fluorophenyl)-4α-methyl-1,4,4α,5,6,7-hexahydrocyclopenta[f]indazol-5-ol]?
A: EC50 ([1]; Table 1, U937 cells): 207 nM; GITAR > GRAMM % SEP ([1]; Table 1): 33%; Emax [1, 3]: 5 to 100%; Emax [1, 4]: 76%; Emax [2]: 43%; EC50 [2]: 170 nM

Q: For `C[C@]12Cc3cnn(-c4ccc(F)cc4)c3C=C1CC[C@@]2(O)CCc1cccc(F)c1[C@@H](N)C(F)(F)F` [Example 152, (4αS,5R)-5-(2-{2-[(1R)-1-amino-2,2,2-trifluoroethyl]-3-fluorophenyl}ethyl)-1-(4-fluorophenyl)-4α-methyl-1,4,4α,5,6,7-hexahydrocyclopenta[f]indazol-5-ol], which EC50 ([1]; Table 1, U937 cells) is on record?
A: 247 nM

Q: And the “GITAR > GRAMM % SEP” value ([1]; Table 1)?
A: 34%

Q: And the Emax [1, 3]?
A: 5 to 100%

Q: And the Emax [1, 4]?
A: 77%

Q: What about the Emax [2] of the same molecule?
A: 44%

Q: And the EC50 [2]?
A: 223 nM

Q: `C[C@]12Cc3cnn(-c4ccc(F)cc4)c3C=C1CC[C@@]2(O)CCc1ccccc1C(=O)N1CC(=O)C1` [Example 156, 1-(2-{2-[(4αS,5R)-1-(4-fluorophenyl)-5-hydroxy-4α-methyl-1,4,4α,5,6,7-hexahydrocyclopenta[f]indazol-5-yl]ethyl}benzoyl)azetidin-3-one] was tested. Which EC50 ([1]; Table 1, U937 cells) did it give?
A: 189 nM

Q: And the “GITAR > GRAMM % SEP” value ([1]; Table 1)?
A: 22%

Q: And the Emax [1, 3]?
A: 5 to 100%

Q: And the Emax [1, 4]?
A: 69%

Q: And the Emax [2]?
A: 47%

Q: What about the EC50 [2] of the same molecule?
A: 278 nM

Q: Which EC50 ([1]; Table 1, U937 cells) does the source give for `CC(=O)Cc1ccccc1CC[C@]1(O)CCC2=Cc3c(cnn3-c3ccc(F)cc3)C[C@@]21C` [Example 157, 1-(2-{2-[(4αS,5R)-1-(4-fluorophenyl)-5-hydroxy-4α-methyl-1,4,4α,5,6,7-hexahydrocyclopenta[f]indazol-5-yl]ethyl}phenyl)acetone] here?
A: 194 nM

Q: What about the “GITAR > GRAMM % SEP” value ([1]; Table 1) of the same molecule?
A: 18%

Q: And the Emax [1, 3]?
A: 5 to 100%

Q: And the Emax [1, 4]?
A: 63%

Q: What about the Emax [2] of the same molecule?
A: 45%

Q: What about the EC50 [2] of the same molecule?
A: 240 nM

Q: Which results are given for `C[C@]12Cc3cnn(-c4ccc(F)cc4)c3C=C1CC[C@@]2(O)CCc1ccc(F)cc1C(N)=O` [Example 159, 5-fluoro-2-{2-[(4αS,5R)-1-(4-fluorophenyl)-5-hydroxy-4α-methyl-1,4,4α,5,6,7-hexahydrocyclopenta[f]indazol-5-yl]ethyl}benzamide]?
A: EC50 ([1]; Table 1, U937 cells): 125 nM; GITAR > GRAMM % SEP ([1]; Table 1): 36%; Emax [1, 3]: 5 to 100%; Emax [1, 4]: 73%; Emax [2]: 37%; EC50 [2]: 197 nM

Q: Which EC50 ([1]; Table 1, U937 cells) does the source give for `C[C@]12Cc3cnn(-c4ccc(F)cc4)c3C=C1CC[C@@]2(O)/C=C/c1ccccc1S(N)(=O)=O` [Example 160, 2-{(E)-2-[(4αS,5R)-1-(4-fluorophenyl)-5-hydroxy-4α-methyl-1,4,4α,5,6,7-hexahydrocyclopenta[f]indazol-5-yl]vinyl}benzenesulfonamide] here?
A: 274 nM

Q: And the “Transrepression U937 Cells GITAR Emax (%)” value ([1]; Table 1, U937 cells, activity repressed by 100 nM dexamethasone = 100%)?
A: 72%

Q: And the “GITAR > GRAMM % SEP” value ([1]; Table 1)?
A: 42%

Q: What about the EC50 [2] of the same molecule?
A: 118 nM

Q: With `C[C@]12Cc3cnn(-c4ccc(F)cc4)c3C=C1CC[C@@]2(O)CCc1ccc(F)cc1C#N` [Example 163, 5-fluoro-2-{2-[(4αS,5R)-1-(4-fluorophenyl)-5-hydroxy-4α-methyl-1,4,4α,5,6,7-hexahydrocyclopenta[f]indazol-5-yl]ethyl}benzonitrile] as the molecule, how does the EC50 ([1]; Table 1, U937 cells) read?
A: 299 nM

Q: And the “GITAR > GRAMM % SEP” value ([1]; Table 1)?
A: 23%

Q: What about the Emax [1, 3] of the same molecule?
A: 5 to 100%

Q: And the Emax [1, 4]?
A: 70%

Q: What about the Emax [2] of the same molecule?
A: 48%

Q: What about the EC50 [2] of the same molecule?
A: 103 nM

Q: `C[C@]12Cc3cnn(-c4ccc(F)c(F)c4)c3C=C1CC[C@@]2(O)CCc1cccc(F)c1C(N)=O` [Example 168, 2-{2-[(4α,5R)-1-(3,4-difluorophenyl)-5-hydroxy-4α-methyl-1,4,4α,5,6,7-hexahydrocyclopenta[f]indazol-5-yl]ethyl}-6-fluorobenzamide] was tested. Which EC50 ([1]; Table 1, U937 cells) did it give?
A: 52 nM

Q: What about the “GITAR > GRAMM % SEP” value ([1]; Table 1) of the same molecule?
A: 19%

Q: And the Emax [1, 3]?
A: 5 to 100%

Q: And the Emax [1, 4]?
A: 77%

Q: What about the Emax [2] of the same molecule?
A: 58%

Q: What about the EC50 [2] of the same molecule?
A: 53 nM

Q: Which EC50 ([1]; Table 1, U937 cells) does the source give for `C[C@]12Cc3cnn(-c4ccc(F)cc4)c3C=C1CC[C@@]2(O)CCc1ccc(Cl)cc1C(N)=O` [Example 170, 5-chloro-2-{2-[(4αS,5R)-1-(4-fluorophenyl)-5-hydroxy-4α-methyl-1,4,4α,5,6,7-hexahydrocyclopenta[f]indazol-5-yl]ethyl}benzamide] here?
A: 223 nM

Q: What about the “GITAR > GRAMM % SEP” value ([1]; Table 1) of the same molecule?
A: 42%

Q: What about the Emax [1, 3] of the same molecule?
A: 5 to 100%

Q: And the Emax [1, 4]?
A: 66%

Q: And the Emax [2]?
A: 24%

Q: And the EC50 [2]?
A: 234 nM

Q: What does the source list for `C[C@]12Cc3cnn(-c4ccc(F)c(F)c4)c3C=C1CC[C@@]2(O)CCc1ccccc1C(N)=O` [Example 172, 2-{2-[(4αS,5R)-1-(3,4-difluorophenyl)-5-hydroxy-4α-methyl-1,4,4α,5,6,7-hexahydrocyclopenta[f]indazol-5-yl]ethyl}benzamide]?
A: EC50 ([1]; Table 1, U937 cells): 139 nM; GITAR > GRAMM % SEP ([1]; Table 1): 36%; Emax [1, 3]: 5 to 100%; Emax [1, 4]: 78%; Emax [2]: 41%; EC50 [2]: 162 nM

Q: What does the source list for `Cc1ccc(C(N)=O)c(CC[C@]2(O)CCC3=Cc4c(cnn4-c4ccc(F)cc4)C[C@@]32C)c1` [Example 174, 2-{2-[(4αS,5R)-1-(4-fluorophenyl)-5-hydroxy-4α-methyl-1,4,4α,5,6,7-hexahydrocyclopenta[f]indazol-5-yl]ethyl}-4-methylbenzamide]?
A: EC50 ([1]; Table 1, U937 cells): 183 nM; GITAR > GRAMM % SEP ([1]; Table 1): 41%; Emax [1, 3]: 5 to 100%; Emax [1, 4]: 77%; Emax [2]: 36%; EC50 [2]: 147 nM

Q: How did the EC50 ([1]; Table 1, U937 cells) turn out when `C[C@]12Cc3cnn(-c4ccc(Cl)cc4)c3C=C1CC[C@@]2(O)CCc1cccc(F)c1C(N)=O` [Example 185, 2-{2-[(4αS,5R)-1-(4-chlorophenyl)-5-hydroxy-4α-methyl-1,4,4α,5,6,7-hexahydrocyclopenta[f]indazol-5-yl]ethyl}-6-fluorobenzamide] was run?
A: 59 nM

Q: What about the “GITAR > GRAMM % SEP” value ([1]; Table 1) of the same molecule?
A: 41%

Q: What about the Emax [1, 3] of the same molecule?
A: 5 to 100%

Q: What about the Emax [1, 4] of the same molecule?
A: 80%

Q: And the Emax [2]?
A: 39%

Q: And the EC50 [2]?
A: 144 nM

Q: Which results are given for `COc1cccc(CC[C@]2(O)CCC3=Cc4c(cnn4-c4ccc(F)cc4)C[C@@]32C)c1C(N)=O` [Example 189, 2-{2-[(4αS,5R)-1-(4-fluorophenyl)-5-hydroxy-4α-methyl-1,4,4α,5,6,7-hexahydrocyclopenta[f]indazol-5-yl]ethyl}-6-methoxybenzamide]?
A: EC50 ([1]; Table 1, U937 cells): 23 nM; GITAR > GRAMM % SEP ([1]; Table 1): 31%; Emax [1, 3]: 5 to 100%; Emax [1, 4]: 80%; Emax [2]: 49%; EC50 [2]: 28 nM

Q: Which results are given for `Cc1cccc(CC[C@]2(O)CCC3=Cc4c(cnn4-c4cccc(F)c4)C[C@@]32C)c1C(N)=O` [Example 191, 2-{2-[(4αS,5R)-1-(3-fluorophenyl)-5-hydroxy-4α-methyl-1,4,4α,5,6,7-hexahydrocyclopenta[f]indazol-5-yl]ethyl}-6-methylbenzamide]?
A: EC50 ([1]; Table 1, U937 cells): 33 nM; GITAR > GRAMM % SEP ([1]; Table 1): 29%; Emax [1, 3]: 5 to 100%; Emax [1, 4]: 78%; Emax [2]: 49%; EC50 [2]: 55 nM
